Our source for the EC50 values is patent publication US12552772B2, “2-pyrazole anilines and related analogs for inhibiting YAP/TAZ-TEAD” (KATHOLIEKE UNIVERSITEIT LEUVEN, priority 2021, dated 2026).

Bounds are passed on as bounds.

Holding throughout (assay type): cell-based
Test [1] concerns NCI-H2052. Briefly: Mesothelioma cell line proliferation assay (ATPlite), NCI-H2052. Particulars: NCI-H2052 cells, 6 days, ATPlite cell viability. On the procedure: (§1) Mesothelioma cell lines, NCI-H226 and NCI-H2052 (all sourced from the ATCC cell culture collection) are plated in 96-well plates (Corning® 96 Well White Polystyrene Microplate clear flat bottom, white polystyrene (TC-Treated)), at 1500 cells/well in full medium (RPMI 1640 ATCC modification with L-glutamine, HEPES, Phenol Red, Sodium Pyruvate, High glucose, Low sodium bicarbonate and 10% fetal bovine serum). Cells are incubated overnight at 37° C. in an incubator with 5% CO2. Then compounds, dissolved in DMSO, are added in dose-response. Cells are incubated with compound dilutions for another 6 days at 37° C. in an incubator with 5% CO2. Cell viability is quantitated using the ATPlite kit (Perkin-Elmer) and the luminescence is read-out using an Envision instrument (Perkin-Elmer). The amount of relative light units produced using the ATPlite kit is used to calculated percent of inhibition.
(§2) The activities of example compounds tested are depicted in the table below. The activity ranges A, B and C refer to EC50 values in the mesothelioma cell line proliferation assay as described as follows: “A”: EC50<1 μM; “B”: 1 μM s EC50≤10 μM and “C”: EC50>10 μM. NT: not tested.
For orientation: In ATP-based viability assays light output follows the ATP content of the culture.

The test system of test [2] is YAP/TAZ-TEAD transcription. Briefly: Reporter gene assay for measuring the inhibition of YAP/TAZ-TEAD transcription (TEAD-responsive element luciferase reporter in Hek293T cells). The conditions noted are these: 24 hours incubation. A digest of the protocol:
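Percent inhibition, scaled between vehicle (0%) and a positive control inhibitor (100%), came from SteadyLite luciferase signal after 24 h compound exposure at 37 °C/5% CO2. Cells: Hek293T transiently carrying a TEAD-responsive luciferase reporter; EC50 derived.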
(In a reporter assay the amount or activity of a reporter protein is the signal.)

Test [3] deals with NCI-H226. Briefly: Mesothelioma cell line proliferation assay (ATPlite), NCI-H226. The conditions noted are these: NCI-H226 cells, 6 days, ATPlite cell viability. The protocol:
as §1, §2

In the case of `C=CC(=O)NCc1cnc(C2CCC(F)(F)CC2)cc1-c1ccn(C(F)F)n1` [Cpd. No. 223, N-((6-(4,4-difluorocyclohexyl)-4-(1-(difluoromethyl)-1H-pyrazol-3-yl)pyridin-3-yl)methyl)acrylamide], the EC50 is 1 to 10 µM in test [1] (Homo sapiens, NCI-H2052, 144 h); < 1 µM in test [2] (Homo sapiens, HEK-293T); < 1 µM in test [3] (Homo sapiens, 144 h).

For `C=CC(=O)NCc1cc(-c2ccc(F)cc2)cc(-c2ccn(C(F)F)n2)n1` [Cpd. No. 225, N-((6-(1-(difluoromethyl)-1H-pyrazol-3-yl)-4-(4-fluorophenyl)pyridin-2-yl)methyl)acrylamide], the EC50 was 1 to 10 µM in test [1] (Homo sapiens, NCI-H2052, 144 h); < 1 µM in test [2] (Homo sapiens, HEK-293T); < 1 µM in test [3] (Homo sapiens, 144 h).

Take `C=CC(=O)NCc1cc(C2CCC(F)(F)CC2)cc(-c2ccn(C(F)F)n2)n1` [Cpd. No. 228, N-((4-(4,4-difluorocyclohexyl)-6-(1-(difluoromethyl)-1H-pyrazol-3-yl)pyridin-2-yl)methyl)acrylamide]: the EC50 in test [1] (Homo sapiens, NCI-H2052, 144 h) was > 10 µM; in test [2] (Homo sapiens, HEK-293T) it was < 1 µM; in test [3] (Homo sapiens, 144 h), < 1 µM.

For `C=CC(=O)NCc1cnc(-c2ccc(F)cc2)cc1-c1cc2n(n1)CCCC2` [Cpd. No. 231, N-((6-(4-fluorophenyl)-4-(4,5,6,7-tetrahydropyrazolo[1,5-a]pyridin-2-yl)pyridin-3-yl)methyl)acrylamide], the 50% effective concentration (EC50) in test [1] (Homo sapiens, NCI-H2052, 144 h) is > 10 µM; in test [2] (Homo sapiens, HEK-293T), < 1 µM; in test [3] (Homo sapiens, 144 h), < 1 µM.

Take `C=CC(=O)NCc1cnc(-c2ccc(F)cc2)cc1-n1nnc(C)n1` [Cpd. No. 249, N-((6-(4-fluorophenyl)-4-(5-methyl-2H-tetrazol-2-yl)pyridin-3-yl)methyl)acrylamide]: the EC50 is 1 to 10 µM in test [1] (Homo sapiens, NCI-H2052, 144 h); < 1 µM in test [2] (Homo sapiens, HEK-293T); < 1 µM in test [3] (Homo sapiens, 144 h).

`C=CC(=O)NCc1cnc(-c2ccc(F)cc2)nc1-c1ccn(C)n1` [Cpd. No. 253, N-((2-(4-fluorophenyl)-4-(1-methyl-1H-pyrazol-3-yl)pyrimidin-5-yl)methyl)acrylamide]: the EC50 in test [1] (Homo sapiens, NCI-H2052, 144 h) was < 1 µM; in test [2] (Homo sapiens, HEK-293T), < 1 µM; in test [3] (Homo sapiens, 144 h), < 1 µM.

For `C=CC(=O)NCc1cc(-c2ccc(F)cc2)nc(-c2ccn(C(F)F)n2)n1` [Cpd. No. 255, N-((2-(1-(difluoromethyl)-1H-pyrazol-3-yl)-6-(4-fluorophenyl)pyrimidin-4-yl)methyl)acrylamide], the EC50 in test [1] (Homo sapiens, NCI-H2052, 144 h) is 1 to 10 µM; in test [2] (Homo sapiens, HEK-293T), < 1 µM; in test [3] (Homo sapiens, 144 h), < 1 µM.

For `C=CC(=O)N1CCC(c2ccc(-c3ccc(F)cc3)cc2-c2ccn(C)n2)C1` (centres unmarked) [Cpd. No. 258, 1-(3-(4′-fluoro-3-(1-methyl-1H-pyrazol-3-yl)-[1,1′-biphenyl]-4-yl)pyrrolidin-1-yl)prop-2-en-1-one], the EC50 in test [1] (Homo sapiens, NCI-H2052, 144 h) is < 1 µM; in test [2] (Homo sapiens, HEK-293T) it was < 1 µM; in test [3] (Homo sapiens, 144 h), < 1 µM.

On to `C=CC(=O)N1CCC(c2ccc(-c3ccc(F)cc3)cc2-c2ccn(C(F)F)n2)C1` (centres unmarked) [Cpd. No. 261, 1-(3-(3-(1-(difluoromethyl)-1H-pyrazol-3-yl)-4′-fluoro-[1,1′-biphenyl]-4-yl)pyrrolidin-1-yl)prop-2-en-1-one], for which the EC50 in test [1] was 1 to 10 µM; in test [2] (Homo sapiens, HEK-293T), < 1 µM; in test [3] (Homo sapiens, 144 h), < 1 µM.

In the case of `C=CC(=O)N1CCC(c2ccc(-c3ccc(F)cc3)cc2-c2ccn(C(F)F)n2)C1` (centres unmarked) [Cpd. No. 261-En1, 1-(3-(3-(1-(difluoromethyl)-1H-pyrazol-3-yl)-4′-fluoro-[1,1′-biphenyl]-4-yl)pyrrolidin-1-yl)prop-2-en-1-one], the EC50 is 1 to 10 µM in test [1], < 1 µM in test [2] and < 1 µM in test [3].

`C=CC(=O)N1CCC(c2ccc(-c3ccc(F)cc3)cc2-c2ccn(C(F)F)n2)C1` (centres unmarked) [Cpd. No. 261-En2, 1-(3-(3-(1-(difluoromethyl)-1H-pyrazol-3-yl)-4′-fluoro-[1,1′-biphenyl]-4-yl)pyrrolidin-1-yl)prop-2-en-1-one]: the EC50 in test [1] was > 10 µM; in test [2] it was < 1 µM; in test [3] it was < 1 µM.

Turning to `C=CC(=O)N1CCC(c2cnc(-c3ccc(F)cc3)cc2-c2ccn(C(F)F)n2)C1` (centres unmarked) [Cpd. No. 262, 1-(3-(4-(1-(difluoromethyl)-1H-pyrazol-3-yl)-6-(4-fluorophenyl)pyridin-3-yl)pyrrolidin-1-yl)prop-2-en-1-one], the EC50 in test [1] was 1 to 10 µM; in test [2] (Homo sapiens, HEK-293T) it was < 1 µM; in test [3] (Homo sapiens, 144 h), < 1 µM.

Take `C=CC(=O)N1CCC(c2cnc(-c3ccc(F)cc3)cc2-c2ccn(C(F)F)n2)C1` (centres unmarked) [Cpd. No. 262-En1, 1-(3-(4-(1-(difluoromethyl)-1H-pyrazol-3-yl)-6-(4-fluorophenyl)pyridin-3-yl)pyrrolidin-1-yl)prop-2-en-1-one]: the half-maximal effective concentration (EC50) is 1 to 10 µM in test [1], < 1 µM in test [2] and < 1 µM in test [3].

As to `C=CC(=O)N1CCC(c2cnc(-c3ccc(F)cc3)cc2-c2ccn(C(F)F)n2)C1` (centres unmarked) [Cpd. No. 262-En2, 1-(3-(4-(1-(difluoromethyl)-1H-pyrazol-3-yl)-6-(4-fluorophenyl)pyridin-3-yl)pyrrolidin-1-yl)prop-2-en-1-one], the figures for the EC50 in test [1], in test [2] and in test [3] were > 10 µM, < 1 µM and < 1 µM, respectively.

As for `CNS(=O)(=O)CCNc1cc(-c2ccccc2)cc(-c2ccn(Cc3cccnc3)n2)c1` [compound 052, N-methyl-2-((5-(1-(pyridin-3-ylmethyl)-1H-pyrazol-3-yl)-[1,1′-biphenyl]-3-yl)amino)ethane-1-sulfonamide], the EC50 in test [1] (Homo sapiens, NCI-H2052, 144 h) was > 10 µM; in test [2] (Homo sapiens, HEK-293T) it was 1 to 20 µM; in test [3] (Homo sapiens, 144 h), > 10 µM.

Take `C=CC(=O)Nc1cc(-c2ccccc2)cc(-c2ccn(Cc3cccnc3)n2)c1` [compound 083, N-(5-(1-(pyridin-3-ylmethyl)-1H-pyrazol-3-yl)-[1,1′-biphenyl]-3-yl)acrylamide]: the concentration giving a half-maximal response (EC50) in test [1] (Homo sapiens, NCI-H2052, 144 h) is 1 to 10 µM; in test [2] (Homo sapiens, HEK-293T), < 1 µM; in test [3] (Homo sapiens, 144 h), < 1 µM.

For the compound `CNS(=O)(=O)CCNc1cnc(-c2ccc(F)cc2)cc1-c1ccn(C(F)F)n1` [compound 131, 2-((4-(1-(difluoromethyl)-1H-pyrazol-3-yl)-6-(4-fluorophenyl)pyridin-3-yl)amino)-N-methylethane-1-sulfonamide], the EC50 in test [1] (Homo sapiens, NCI-H2052, 144 h) was > 10 µM; in test [2] (Homo sapiens, HEK-293T), < 1 µM; in test [3] (Homo sapiens, 144 h), 1 to 10 µM.

As to `CNS(=O)(=O)CCNc1ccc(-c2ccc(F)cc2)nc1-c1ccn(C(F)F)n1` [compound 132, 2-((2-(1-(difluoromethyl)-1H-pyrazol-3-yl)-6-(4-fluorophenyl)pyridin-3-yl)amino)-N-methylethane-1-sulfonamide], the EC50 was > 10 µM in test [1] (Homo sapiens, NCI-H2052, 144 h); < 1 µM in test [2] (Homo sapiens, HEK-293T); > 10 µM in test [3] (Homo sapiens, 144 h).

For `C=CC(=O)NCc1ccc(-c2ccccc2)cc1-c1ccn(C)n1` [compound 135, N-((3-(1-methyl-1H-pyrazol-3-yl)-[1,1′-biphenyl]-4-yl)methyl)acrylamide], the EC50 is < 1 µM in test [2] (Homo sapiens, HEK-293T) and < 1 µM in test [3] (Homo sapiens, 144 h).

Take `C=CC(=O)NCc1cc(-c2ccccc2)cc(-c2ccn(C)n2)c1` [compound 137, N-((5-(1-methyl-1H-pyrazol-3-yl)-[1,1′-biphenyl]-3-yl)methyl)acrylamide]: the EC50 is > 10 µM in test [1] (Homo sapiens, NCI-H2052, 144 h); < 1 µM in test [2] (Homo sapiens, HEK-293T); < 1 µM in test [3] (Homo sapiens, 144 h).

Regarding `C=CC(=O)NCc1ccc(-c2ccc(C(F)(F)F)cc2)cc1-c1ccn(C)n1` [compound 140, N-((3-(1-methyl-1H-pyrazol-3-yl)-4′-(trifluoromethyl)-[1,1′-biphenyl]-4-yl)methyl)acrylamide], the concentration for a half-maximal effect (EC50) in test [1] (Homo sapiens, NCI-H2052, 144 h) is < 1 µM; in test [2] (Homo sapiens, HEK-293T), < 1 µM; in test [3] (Homo sapiens, 144 h), < 1 µM.

`C=CC(=O)NCc1ccc(-c2cccc(C(F)(F)F)c2)cc1-c1ccn(C)n1` [compound 141, N-((3-(1-methyl-1H-pyrazol-3-yl)-3′-(trifluoromethyl)-[1,1′-biphenyl]-4-yl)methyl)acrylamide]: the EC50 in test [1] (Homo sapiens, NCI-H2052, 144 h) was < 1 µM; in test [2] (Homo sapiens, HEK-293T) it was < 1 µM; in test [3] (Homo sapiens, 144 h), < 1 µM.

`C=CC(=O)NCc1ccc(-c2cccc(F)c2)cc1-c1ccn(C)n1` [compound 142, N-((3′-fluoro-3-(1-methyl-1H-pyrazol-3-yl)-[1,1′-biphenyl]-4-yl)methyl)acrylamide]: the EC50 is < 1 µM in test [1] (Homo sapiens, NCI-H2052, 144 h); < 1 µM in test [2] (Homo sapiens, HEK-293T); < 1 µM in test [3] (Homo sapiens, 144 h).

On to `C=CC(=O)NCc1ccc(-c2ccc(F)cc2)cc1-c1ccn(C)n1` [compound 143, N-((4′-fluoro-3-(1-methyl-1H-pyrazol-3-yl)-[1,1′-biphenyl]-4-yl)methyl)acrylamide], for which the EC50 was < 1 µM in test [1] (Homo sapiens, NCI-H2052, 144 h); < 1 µM in test [2] (Homo sapiens, HEK-293T); < 1 µM in test [3] (Homo sapiens, 144 h).

Turning to `C=CC(=O)NCc1ccc(-c2ccc(F)c(F)c2)cc1-c1ccn(C)n1` [compound 144, N-((3′,4′-difluoro-3-(1-methyl-1H-pyrazol-3-yl)-[1,1′-biphenyl]-4-yl)methyl)acrylamide], the EC50 in test [1] (Homo sapiens, NCI-H2052, 144 h) was < 1 µM; in test [2] (Homo sapiens, HEK-293T) it was < 1 µM; in test [3] (Homo sapiens, 144 h) it was < 1 µM.

Usually EC50 stands for the concentration at which the effect is half-maximal.
